Results: patent US9234025B2, “Extracellular allosteric inhibitor binding domain from a tyrosine kinase receptor” (SANOFI, priority 2009, dated 2016)

Test system: FGFR2
Assay: FRS2, Erk1/2 and PLCγ phosphorylation in FGFR2-transfected HEK293 cells (western blot)
Assay type: cell-based, human
Settings: compound at 1 μM
Procedure: HEK293 cells were either transiently of stably transfected (using FuGENE 6, Roche) with hFGFR2IIIca or hFGFR2IIIca-Y328D cloned in pcDNA3 (Invitrogen). Stably transfected cells were grown in G418 (400 μg/ml) containing medium. Before stimulation, the cells were starved overnight in DMEM (0% serum), and pre-incubated with […] at the required concentration. The cells were subsequently stimulated with FGF2 (concentration between 0.5-10 ng/ml) for 5 min at 37° C. with or without SSR or SU5402 at 1 μM. After washing with ice-cold phosphate-buffered saline containing phosphatase inhibitors (Roche), cells were lysed in RIPA buffer (Tris 30 mM HCl pH 7.5, 150 mM NaCl, 1 mM EDTA, 1% triton-X, 0.5% w/v deoxycholate, containing phophatase and protease inhibitors as described by the manufacturer (Roche)). Cell lysates were centrifuged at 12,000 g for 10 min, and the supernatants were collected. Proteins were separated on Novex polyacrylamide gels (Invitrogen, Carlsbad, Calif.) and subsequently transferred onto Hybond ECL nitrocellulose membranes (Amersham Pharmacia). Following incubation with 5% non-fat milk powder in PBS, the membranes were incubated overnight at 4° C. with the following antibodies: phospho-ERK1/2 (CST:9101), phospho-FRS2 (CST:3861), phospho-PLCγ (CST:2821) and FGFR2 (F0300, Sigma).
In order to evaluate SSR effect on FGFR-controlled phosphor-signalling, HEK293 cells have been transfected with FGFR2 and the two main pathways following FGFR autophosphorylation, PLCγ and FRS2, have been studied by western blot in comparison with a published FGFR tyrosine kinase inhibitor SU5402 described to inhibit FGFR-dependent FRS2 and PLCγ cascades (Zhen et al., Oncogene 2007). In such cells, FGF induces FRS2, Erk1/2 and PLCγ phosphorylation. […] More generally, these differences in phosphorylation can be used as reporter to evaluate allosteric modulators.

Cc1c[nH]c(/C=C2\C(=O)Nc3ccccc32)c1CCC(=O)O [SU5402]
blocks: FGF-induced Erk1/2 phosphorylation | FGF-induced FRS2 phosphorylation | FGF-induced PLCγ phosphorylation
